The test system of data set [1] is NZOV9. As to the kind of experiment: Cellular growth inhibition, NZOV9 (3H-thymidine incorporation). Type of data set: cell-based, human. Conditions: Homo sapiens, NZOV9, read-out: Cell IC50 NZOV9. As to the method:
(§1) The compounds were evaluated against two early passage human cell lines NZB5 and NZOV9 (Marshall et al., Oncol. Res. 2004, 14, 297). The cells were grown in ITS medium (α-modified minimal essential medium supplemented insulin, transferrin, selenite, and 5% fetal bovine serum) and grown on 96-well tissue culture plates under an atmosphere of 5% O2, 5% CO2, and 90% N2. Individual wells contained 500-1,000 cells (depending on the growth rate) in a volume of 150 μL. Compounds were added at 10-fold concentration steps to a maximum of 20 μM and plates were incubated for five days, with ^3H-thymidine being added over the last 6 hrs. Cells were harvested and incorporated radioactivity measured. Duplicate samples were analyzed for each compound dose with multiple control samples.
A general note: Incorporation of labelled thymidine or its analogues reports DNA synthesis.

Data set [2] concerns NZB5. Description: Cellular growth inhibition, NZB5 (3H-thymidine incorporation). To be noted: Homo sapiens, NZB5, read-out: Cell IC50 NZB5. The class given is cell-based, human. On the procedure:
as §1

Structures are written as SMILES. Some results are limits rather than exact numbers.

Consider `COc1cccc2c1nc(C(F)F)n2-c1nc(N2CCOCC2)nc(N2CCC(NS(C)(=O)=O)C2)n1` (stereo in doubt) [Example 38, N-{(3S)-1-[4-[2-(difluoromethyl)-4-methoxy-1H-benzimidazol-1-yl]-6-(4-morpholinyl)-1,3,5-triazin-2-yl]pyrrolidinyl}methanesulfonamide], for which the melting point lay in the range of 290 to 292 °C. The half-maximal inhibitory concentration (IC50) in data set [1] was < 100 nM. In addition, in data set [2], the IC50 fell in the range of 100 to 1000 nM.
With `COc1cccc2c1nc(C(F)F)n2-c1nc(N2CCOCC2)nc(N2CCCC(NS(C)(=O)=O)C2)n1` (stereo in doubt) [Example 46, N-{(3S)-1-[4-[2-(difluoromethyl)-4-methoxy-1H-benzimidazol-1-yl]-6-(4-morpholinyl)-1,3,5-triazin-2-yl]piperidinyl}methanesulfonamide], the melting point lay in the range of 220 to 221 °C. For the same compound, the concentration for half-maximal inhibition (IC50) in data set [1] is < 100 nM. Moreover, in data set [2], the half-maximal inhibitory concentration (IC50) was 100 to 1000 nM.
For `COc1cccc2c1nc(C(F)F)n2-c1nc(N[C@@H]2CCN(S(C)(=O)=O)C2)nc(N2CCOCC2)n1` [Example 32, 4-[2-(difluoromethyl)-4-methoxy-1H-benzimidazol-1-yl]-N-[(3R)-1-(methylsulfonyl)pyrrolidinyl]-6-(4-morpholinyl)-1,3,5-triazin-2-amine] the same measures were 260 to 261 °C, < 100 nM and 100 to 1000 nM.
In turn, `COc1cccc2c1nc(C(F)F)n2-c1nc(N2CCOCC2)nc(N2CCC(NS(C)(=O)=O)C2)n1` (stereo in doubt) [Example 36, N-{(3R)-1-[4-[2-(difluoromethyl)-4-methoxy-1H-benzimidazol-1-yl]-6-(4-morpholinyl)-1,3,5-triazin-2-yl]pyrrolidinyl}methanesulfonamide] displayed a melting point of 290 to 292 °C. For the same compound, the IC50 in data set [1] was < 100 nM. Moreover, the IC50 in data set [2] lay within 100 to 1000 nM.
`COc1cccc2c1nc(C(F)F)n2-c1nc(N2CCOCC2)nc(N2CCC(N(C)S(C)(=O)=O)C2)n1` (stereo in doubt) [Example 37, N-{(3R)-1-[4-[2-(difluoromethyl)-4-methoxy-1H-benzimidazol-1-yl]-6-(4-morpholinyl)-1,3,5-triazin-2-yl]pyrrolidinyl}-N-methylmethanesulfonamide] displayed a melting point of 242 to 244 °C. The half-maximal inhibitory concentration (IC50) in data set [1] was < 100 nM. In data set [2], the IC50 was in the range of 100 to 1000 nM.
`COc1cccc2c1nc(C(F)F)n2-c1nc(N[C@@H]2CCCN(S(C)(=O)=O)C2)nc(N2CCOCC2)n1` [Example 40, 4-[2-(difluoromethyl)-4-methoxy-1H-benzimidazol-1-yl]-N-[(3R)-1-(methylsulfonyl)piperidinyl]-6-(4-morpholinyl)-1,3,5-triazin-2-amine] displayed a melting point of 241 to 243 °C. Also, the IC50 in data set [1] was < 100 nM. Also, in data set [2], the half-maximal inhibitory concentration (IC50) is 100 to 1000 nM.
`COc1cccc2c1nc(C(F)F)n2-c1nc(N2CCOCC2)nc(N2CCN(S(C)(=O)=O)CC2)n1` [Example 2, 2-(difluoromethyl)-4-methoxy-1-[4-[4-(methylsulfonyl)-1-piperazinyl]-6-(4-morpholinyl)-1,3,5-triazin-2-yl]-1H-benzimidazole]: the melting point lay in the range of 311 to 314 °C. Also, in data set [1], the IC50 lay in the range of 100 to 1000 nM. Besides, the IC50 in data set [2] fell in the range of 100 to 1000 nM.
Take `COc1cccc2c1nc(C(F)F)n2-c1nc(N2CCOCC2)nc(N2CCCC(N(C)S(C)(=O)=O)C2)n1` (stereo in doubt) [Example 45, N-{(3R)-1-[4-[2-(difluoromethyl)-4-methoxy-1H-benzimidazol-1-yl]-6-(4-morpholinyl)-1,3,5-triazin-2-yl]piperidinyl}-N-methylmethanesulfonamide]: the melting point lay within 224 to 226 °C. Moreover, the IC50 in data set [1] was < 100 nM. The half-maximal inhibitory concentration (IC50) in data set [2] was 100 to 1000 nM.

What is called IC50 is the concentration that inhibits the measured activity by half. One may read the melting point as the temperature of the solid-liquid transition.

For the origin of these results see US8772287B2, “Pyrimidinyl and 1,3,5-triazinyl benzimidazole sulfonamides and their use in cancer therapy” (VetDC, Inc., priority 2009, dated 2014).
